Series [1] concerns the target T1, telomerase in MCF7 cells in culture (Homo sapiens, UniProt O14746).
T1 construct: endogenous in cells; host or cells: MCF-7
In words: TRAP assay in cultured cells. The following applies: TRAP assay, MCF7 cells in culture. The format is cell-based. As for the experimental part: Telomeric Repeat Amplification Protocol Assay. The telomeric repeat amplification protocol (TRAP) assay was performed using the TRAPeze RT Telomerase Detection Kit (EMD Millipore) and iTaq DNA polymerase (Bio-Rad) according to the manufacturer's protocol.
Cultured Cells TRAP Analysis. MCF-7, HeLa, ACHN, MDA-MB231 and A549 cells were cultured in DMEM media supplemented with 10% Fetal Bovine Serum (FBS), 1% pen/strep and with 5% CO2 and 37° C. Cells were plated in 96 well plates and allowed to attach for 24 h. Media was removed, and fresh media containing various concentrations of compound was added, and the plate was incubated for 24 h. […] The cell extract was then centrifuged at 12,000×g for 20 min at 4° C. to remove cell debris. Note: “fresh” media constitutes media supplemented with 10% Fetal Bovine Serum (FBS) and 1% pen/strep that has not been previously used for cell culture (e.g., not conditioned media). TRAP analysis was conducted as above.

For series [2], the system named is Saos-2. Put plainly: Cell viability, telomerase-negative cells. The format is cell-based. The note with it: Saos-2, up to 100 μM.
In series [3] the test system is N-acetyl cysteine (NAC). Put plainly: physchem. The format is physicochemical. The note with it: pH 7.4. As for the experimental part:
N-Acetyl Cysteine, N-Acetyl Lysine and N-Acetyl Serine Kinetic Studies. Assay was conducted as described with minor modifications.^81-84 Briefly, a 1 mM stock solution of NU-1 with internal standard (phenacetin) in DMSO was added to a 50 mM solution of either N-acetyl cysteine, N-acetyl lysine or N-acetyl serine in 67 mM phosphate buffer (pH 7.4), as well as added to a solution of 67 mM phosphate buffer (pH 7.4) control. Samples were taken every 2 min for 2 h and quenched immediately with MeOH and centrifuged upon sampling. Samples were placed on a Waters Acquity UPLC-MS system and measured for the ratio of NU-1 to internal standard intensity to calculate the amount of NU-1 present at each time point relative to the amount of NU-1 at the first injection of the compound in buffer. Assay was conducted in triplicate.

Series [4] can be described thus: Liver microsomal stability assay. The following applies: in words. The format is in vitro ADME. The method, then:
Liver Microsomal Stability Assay. Assay was conducted using the Corning UltraPool HLM 150 Mixed Gender microsomal kit (Corning Life Sciences) according to the manufacturer's protocol.
(Liver microsomes are a subcellular fraction often used to study metabolism.)

pIC50: −log10 of the molar value.

By pIC50 is commonly meant the IC50 on a negative log10 scale, so that one unit is a factor of ten. The low end stands for a high IC50, the high end for a low IC50. The half-life is the time needed for the level to fall by half in the phase considered. A high value points to slow decline.

T1 sequence (O14746 whole entry): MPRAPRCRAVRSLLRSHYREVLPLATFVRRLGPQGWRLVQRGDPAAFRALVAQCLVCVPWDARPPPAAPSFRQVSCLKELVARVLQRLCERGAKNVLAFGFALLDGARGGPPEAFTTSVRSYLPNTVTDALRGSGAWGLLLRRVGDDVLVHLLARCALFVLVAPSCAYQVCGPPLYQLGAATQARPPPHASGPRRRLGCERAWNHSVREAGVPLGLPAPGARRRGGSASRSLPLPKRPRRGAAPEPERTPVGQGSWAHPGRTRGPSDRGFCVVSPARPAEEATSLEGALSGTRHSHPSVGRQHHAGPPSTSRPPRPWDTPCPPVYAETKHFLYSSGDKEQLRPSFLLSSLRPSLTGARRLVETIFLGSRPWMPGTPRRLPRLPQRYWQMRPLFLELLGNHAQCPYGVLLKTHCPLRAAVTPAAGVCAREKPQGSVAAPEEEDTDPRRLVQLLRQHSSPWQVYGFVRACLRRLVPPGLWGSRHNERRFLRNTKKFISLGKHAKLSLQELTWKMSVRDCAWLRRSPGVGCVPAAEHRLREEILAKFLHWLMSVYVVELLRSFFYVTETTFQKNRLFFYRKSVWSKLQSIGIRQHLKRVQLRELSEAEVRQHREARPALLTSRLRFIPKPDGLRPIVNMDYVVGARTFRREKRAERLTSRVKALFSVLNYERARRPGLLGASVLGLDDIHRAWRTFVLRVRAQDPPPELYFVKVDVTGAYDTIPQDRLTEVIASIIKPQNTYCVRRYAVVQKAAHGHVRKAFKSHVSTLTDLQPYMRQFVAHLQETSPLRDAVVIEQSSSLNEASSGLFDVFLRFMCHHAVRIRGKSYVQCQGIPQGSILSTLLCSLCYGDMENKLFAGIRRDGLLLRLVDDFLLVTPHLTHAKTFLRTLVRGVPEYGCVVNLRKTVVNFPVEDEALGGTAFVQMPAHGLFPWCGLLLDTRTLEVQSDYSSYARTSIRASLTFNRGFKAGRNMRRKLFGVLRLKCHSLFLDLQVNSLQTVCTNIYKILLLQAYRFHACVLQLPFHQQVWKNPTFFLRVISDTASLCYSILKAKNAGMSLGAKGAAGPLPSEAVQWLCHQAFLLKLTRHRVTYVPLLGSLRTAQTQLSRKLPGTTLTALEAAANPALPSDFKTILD
T1 sequence (O60832 whole entry partner): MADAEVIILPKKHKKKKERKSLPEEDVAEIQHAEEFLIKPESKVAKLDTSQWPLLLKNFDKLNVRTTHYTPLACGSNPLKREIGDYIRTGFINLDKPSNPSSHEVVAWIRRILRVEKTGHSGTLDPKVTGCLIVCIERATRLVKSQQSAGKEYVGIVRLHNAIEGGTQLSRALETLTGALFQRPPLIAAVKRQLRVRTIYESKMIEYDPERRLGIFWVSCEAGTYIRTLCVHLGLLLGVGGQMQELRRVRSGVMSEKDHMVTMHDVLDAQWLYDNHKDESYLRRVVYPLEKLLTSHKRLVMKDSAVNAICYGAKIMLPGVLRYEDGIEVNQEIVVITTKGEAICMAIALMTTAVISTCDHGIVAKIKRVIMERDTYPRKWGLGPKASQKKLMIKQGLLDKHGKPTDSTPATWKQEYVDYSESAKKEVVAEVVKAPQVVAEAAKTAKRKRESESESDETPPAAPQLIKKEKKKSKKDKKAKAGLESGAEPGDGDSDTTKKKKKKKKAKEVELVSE
T1 sequence (Q9NPE3 whole entry partner): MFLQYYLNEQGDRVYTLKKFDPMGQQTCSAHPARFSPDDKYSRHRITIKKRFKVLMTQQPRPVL
T1 sequence (Q9NX24 whole entry partner): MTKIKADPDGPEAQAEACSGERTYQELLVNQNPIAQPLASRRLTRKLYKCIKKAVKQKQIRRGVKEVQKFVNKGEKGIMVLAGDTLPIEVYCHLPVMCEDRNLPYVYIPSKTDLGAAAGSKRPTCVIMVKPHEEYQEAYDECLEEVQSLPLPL
T1 sequence (Q9NY12 whole entry partner): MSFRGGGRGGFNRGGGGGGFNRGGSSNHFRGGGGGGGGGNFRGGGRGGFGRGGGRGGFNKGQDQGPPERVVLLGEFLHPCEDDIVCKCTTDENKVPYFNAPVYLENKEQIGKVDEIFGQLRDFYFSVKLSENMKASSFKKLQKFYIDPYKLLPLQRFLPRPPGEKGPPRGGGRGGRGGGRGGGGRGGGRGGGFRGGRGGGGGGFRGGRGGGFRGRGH
T1 sequence (Q9BUR4 whole entry partner): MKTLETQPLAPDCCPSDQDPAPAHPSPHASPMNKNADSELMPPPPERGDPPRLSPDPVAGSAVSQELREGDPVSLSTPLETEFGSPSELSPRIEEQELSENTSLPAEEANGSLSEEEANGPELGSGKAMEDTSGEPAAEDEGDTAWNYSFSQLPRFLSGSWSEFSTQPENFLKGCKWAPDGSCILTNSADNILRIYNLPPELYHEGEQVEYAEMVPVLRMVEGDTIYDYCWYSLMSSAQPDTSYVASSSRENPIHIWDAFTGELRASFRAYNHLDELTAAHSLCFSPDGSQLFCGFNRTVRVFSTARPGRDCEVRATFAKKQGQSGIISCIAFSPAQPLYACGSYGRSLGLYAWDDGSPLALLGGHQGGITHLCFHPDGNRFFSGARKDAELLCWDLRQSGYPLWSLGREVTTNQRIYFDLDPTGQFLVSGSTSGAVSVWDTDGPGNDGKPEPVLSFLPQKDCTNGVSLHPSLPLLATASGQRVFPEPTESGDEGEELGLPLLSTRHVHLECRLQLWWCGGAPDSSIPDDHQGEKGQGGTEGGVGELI

As to `C=C1C(=O)[C@](C)(C(=O)OC)[C@H](CCc2cn(Cc3ccc(F)cc3F)nn2)O[C@@H]1C` [NU-1, methyl (2S,3R,6R)-2-(2-(1-(2,4-difluorobenzyl)-1H-1,2,3-triazol-4-yl)ethyl)-3,6-dimethyl-5 methylene-4-oxotetrahydro-2H-pyran-3-carboxylate], the pIC50 in series [1] is 6.57. Moreover, in series [2], the effect on viability result was “did not affect viability”. Further, the half-life at 1 μM in series [3] stood at 42 min. In addition, the microsomal stability result in series [4] was “satisfactory performance”.

(Values after patent US11518750B2, “3-methylideneoxan-4-one compounds and substituted derivatives thereof as inhibitors of telomerase” (NORTHWESTERN UNIVERSITY, priority 2019, dated 2022).)
